Numbered stars: 1 amine (or outer) side, 2 acyl side, 3 side chain; on linkers, the order of the positions; unused ones are H or OH. Square brackets hold non-standard residues; d marks the D form. Side chains are listed from the residue outwards. Peptide text beside a SMILES is read from it. * marks the point of attachment. X1 = O=C([C@@H]1C[C@@H](Cc2ccc(Br)cc2)CN1[*:1])[*:2]; Phe(4-CF3) = N[C@@H](Cc1ccc(C(F)(F)F)cc1)C(=O)O; Trp(5-OH) = N[C@@H](Cc1c[nH]c2ccc(O)cc12)C(=O)O; Oic = O=C(O)[C@@H]1C[C@@H]2CCCC[C@@H]2N1; Phe(4-CN) = N#Cc1ccc(C[C@H](N)C(=O)O)cc1; Phe(4-Cl) = N[C@@H](Cc1ccc(Cl)cc1)C(=O)O; Pro(cis-4-F) = O=C(O)[C@@H]1C[C@H](F)CN1; Tic(7-OH) = O=C(O)[C@@H]1Cc2ccc(O)cc2CN1; 2Nal = N[C@@H](Cc1ccc2ccccc2c1)C(=O)O; Hyp = O=C(O)[C@@H]1C[C@@H](O)CN1; Tic = O=C(O)[C@@H]1Cc2ccccc2CN1; MeOCH2CH2OCH2CO = COCCOCC(=O)*; Benzyl(4-Br) = Brc1ccc(C*)cc1; N(Me)CH2CH2OMe = COCCN(C)*; Thz = O=C(O)[C@@H]1CSCN1; Ac5c = NC1(C(=O)O)CCCC1; Dab = NCC[C@H](N)C(=O)O; dAze = O=C(O)[C@H]1CCN1; CO = O=C([*:1])[*:2]; NHPh = c1ccc(N*)cc1; Bn = c1ccc(C*)cc1; Ms = CS(=O)(=O)*
Legend:
human CCR10 [1] = molecular target: T1, human CCR10 (Homo sapiens, UniProt P46092); assay: Calcium flux assay (CCR10 antagonism, CCL27 as agonist); type: cell-based; settings: CCR10 transfected 300-19 murine pre-B cells; CCL27 30 nM
T1 construct: expressed in transfected cells
T1 sequence (P46092 1-362): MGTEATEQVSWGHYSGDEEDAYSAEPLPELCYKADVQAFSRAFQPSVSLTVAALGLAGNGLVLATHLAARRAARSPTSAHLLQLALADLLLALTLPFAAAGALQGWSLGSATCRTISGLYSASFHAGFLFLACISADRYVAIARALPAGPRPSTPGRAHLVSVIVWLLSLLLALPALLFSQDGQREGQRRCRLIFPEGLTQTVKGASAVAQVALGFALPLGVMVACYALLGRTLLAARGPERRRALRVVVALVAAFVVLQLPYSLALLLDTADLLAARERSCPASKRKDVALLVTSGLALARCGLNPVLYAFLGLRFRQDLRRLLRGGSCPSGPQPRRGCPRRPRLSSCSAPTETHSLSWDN
Description: (§1) Lyophilized peptides were weighed on a Microbalance (Mettler MX5) and dissolved in aqueous 90% DMSO to a final concentration of 10 mM unless otherwise stated. Stock solutions were kept at +4° C., and protected from light.
(§2) Peptides were assayed for CCR10 antagonism in a calcium flux assay and in a chemotaxis assay using a mouse pre-B cell line 300-19 stably transfected with human CCR10, and with human CCL27 as agonist.
The calcium flux release was assessed using CCR10 transfected 300-19 murine pre-B cells. These cells were labeled as a batch with Calcium4 Reagent (Molecular Devices, Sunnyvale, Calif.) in HBSS buffer for 60 min.
After dispensing 8×10^4 cells in each well of a 384-well black plate, a concentrated solution of the β-hairpin peptidomimetics of this invention in HBSS+0.1% BSA+0.1% DMSO (final concentration) was added to the cells. The entire plate was centrifuged and placed in a Flexstation II (Molecular Devices) automated plate reader. After reading a 20 s baseline, the Flexstation dispensed CCL27 (RnD systems) at a final concentration of 30 nM in HBSS+0.1% BSA onto the cells and calcium flux was measured for an additional 70 s.
Alternatively a FIipR384 (Molecular Devices) was used for read out of the 384-well plates. In this case about 8×10^4 cells were placed in each well, centrifuged, placed in the FlipR and after 5 s of baseline reading, the β-hairpin peptidomimetics in HBSS+0.1% BSA+0.1% DMSO (final concentration) were added. After an incubation time of 5 min, the CCL27 solution was added to the mixture and the calcium flux was measured for 200 s.
The maximum signal was determined from control wells without inhibitor. Percentage of inhibition was calculated from a range of compound concentrations, which were subsequently used to calculate IC50 values (Softmax Pro, Molecular Devices). All steps were carried out at room temperature.

human CCR10 [2] = molecular target: T1, human CCR10; assay: Chemotaxis assay (CCR10-transfected 300-19 cells, CCL27 gradient); type: cell-based; settings: CCR10-transfected 300-19 murine pre-B cells; 30 nM CCL27 gradient
Description: as §1, §2
The chemotactic response of CCR10-transfected 300-19 murine pre-B cells to a gradient of CCL27 (CTACK) was measured using disposable Transwell® assay plates from Costar (5 μm pore size) according to the protocol of the manufacturer. Briefly, cells were grown under sterile conditions at 37° C. with 5% CO2 in flasks containing RPMI+5% FCS, glutamine, penicillin/streptomycin (all media components were from Life Technologies) and the appropriate selection antibiotics (Puromycin, G418 or Tetracycline). For the assay, cells were pelleted by centrifugation, washed once in Dulbecco's phosphate buffered saline (DPBS), and resuspended to give 1×10^6 cells/ml in RPMI+0.5% bovine serum albumin (BSA). 100 μl of cell suspension was applied to the top of the assay filter. The β-hairpin peptidomimetics, diluted in the same assay medium, were added to both top and bottom chambers. The cells were allowed to migrate for 4-6 hours at 37° C. into the bottom chamber of the assay plate containing 30 nM of CCL27 (RnD systems). Migrated cells were counted using a FACS cytometer (Cytomics FC500, Beckman Coulter). Data normalization was performed using the number of any cells that had migrated in the absence of the β-hairpin peptidomimetic and the number of cells that have randomly migrated in absence of CCL27 [these values were taken as 100% (no inhibitory activity) and 0%, respectively]. From a range of compound concentrations IC50 were determined using Prism5 (GraphPad software).

IC50 (human CCR10 [1]) [nM]	SMILES	IC50 (human CCR10 [2]) [nM]
15.8 ± 10.3	NCC[C@@H]1NC(=O)[C@H](Cc2c[nH]c3ccccc23)NC(=O)C2(CCCC2)NC(=O)[C@H](Cc2c[nH]c3ccccc23)NC(=O)[C@@H]2C[C@@H](Cc3ccc(Br)cc3)CN2C(=O)[C@H]2CCCN2C1=O [compound 39, cyclo(-Trp-Cyp-Trp-Dab-^DPro-Pro((4R)4BrBn)-)] (cyclo([Ac5c]W[Dab][dP][X1]W))	9
21.7 ± 3.9	N#Cc1ccc(C[C@@H]2NC(=O)[C@@H]3C[C@@H](OCc4ccccc4)CN3C(=O)[C@H]3CCCN3C(=O)[C@H](CCC(N)=O)NC(=O)[C@H](Cc3c[nH]c4ccccc34)NC(=O)C3(CCCC3)NC2=O)cc1 [compound 47, cyclo(-Phe(4CN)-Cyp-Trp-Gln-^DPro-Hyp(Bn)-)] (cyclo([Ac5c]WQ[dP][Hyp](Bn)[Phe(4-CN)]))	
190 ± 89.8	NCC[C@@H]1NC(=O)[C@H](Cc2c[nH]c3ccccc23)NC(=O)C2(CCCC2)NC(=O)[C@H](Cc2c[nH]c3ccccc23)NC(=O)[C@@H]2C[C@@H](O)CN2C(=O)[C@H]2CCCN2C1=O [Ex. 103, cyclo(-Trp-Cyp-Trp-Dab-^DPro-Hyp-)] (cyclo([Ac5c]W[Dab][dP][Hyp]W))	
70.4 ± 19.2	N=C(N)NCCC[C@@H]1NC(=O)[C@H](Cc2c[nH]c3ccccc23)NC(=O)C2(CCCC2)NC(=O)[C@H](Cc2c[nH]c3ccccc23)NC(=O)[C@@H]2Cc3ccccc3CN2C(=O)[C@H]2CCN2C1=O [Ex. 25, cyclo(-Trp-Cyp-Trp-Arg-^DAze-Tic-)] (cyclo([Ac5c]WR[dAze][Tic]W))	
39.9 ± 34.8	NCC[C@@H]1NC(=O)[C@H](Cc2ccc(Cl)cc2)NC(=O)C2(CCCC2)NC(=O)[C@H](Cc2c[nH]c3ccccc23)NC(=O)[C@@H]2C[C@@H](OCc3ccccc3)CN2C(=O)[C@H]2CCCN2C1=O [Ex. 43, cyclo(-Trp-Cyp-Phe(4Cl)-Dab-^DPro-Hyp(Bn)-)] (cyclo([Ac5c][Phe(4-Cl)][Dab][dP][Hyp](Bn)W))	
57 ± 26.4	NCC[C@@H]1NC(=O)[C@H](Cc2c[nH]c3ccccc23)NC(=O)C2(CCCC2)NC(=O)[C@H](Cc2c[nH]c3ccccc23)NC(=O)[C@@H]2Cc3ccccc3CN2C(=O)[C@H]2CCN2C1=O [Ex. 26, cyclo(-Trp-Cyp-Trp-Dab-^DAze-Tic-)] (cyclo([Ac5c]W[Dab][dAze][Tic]W))	
22.6 ± 13.6	NCC[C@@H]1NC(=O)[C@H](Cc2c[nH]c3ccccc23)NC(=O)C2(CCCC2)NC(=O)[C@H](Cc2ccc(C(F)(F)F)cc2)NC(=O)[C@@H]2C[C@@H](OCc3ccc(Br)cc3)CN2C(=O)[C@H]2CCCN2C1=O [Ex. 54, cyclo(-Phe(4CF3)-Cyp-Trp-Dab-^DPro-Hyp(4BrBn)-)] (cyclo([Ac5c]W[Dab][dP][Hyp](Benzyl(4-Br))[Phe(4-CF3)]))	

The remaining lines, values behind:

SMILES	IC50 (human CCR10 [1]) [nM]	IC50 (human CCR10 [2]) [nM]
NC(=O)CC[C@@H]1NC(=O)[C@H](Cc2c[nH]c3ccccc23)NC(=O)C2(CCCC2)NC(=O)[C@H](Cc2c[nH]c3ccc(O)cc23)NC(=O)[C@@H]2CSCN2C(=O)[C@H]2CCCN2C1=O [Ex. 7, cyclo(-Trp(5OH)-Cyp-Trp-Gln-^DPro-Thz-)] (cyclo([Trp(5-OH)][Ac5c]WQ[dP][Thz]))	144 ± 84.1	3.1
CS(=O)(=O)NCC[C@@H]1NC(=O)[C@H](Cc2c[nH]c3ccccc23)NC(=O)C2(CCCC2)NC(=O)[C@H](Cc2c[nH]c3ccccc23)NC(=O)[C@@H]2C[C@@H]3CCCC[C@@H]3N2C(=O)[C@H]2CCCN2C1=O [Ex. 100, cyclo(-Trp-Cyp-Trp-Dab(MeSO2)-^DPro-Oic-)] (cyclo([Ac5c]W[Dab](Ms)[dP][Oic]W))	0.2 ± 0.1	3.4
COCCOCC(=O)NCC[C@@H]1NC(=O)[C@H](Cc2c[nH]c3ccccc23)NC(=O)C2(CCCC2)NC(=O)[C@H](Cc2c[nH]c3ccccc23)NC(=O)[C@@H]2C[C@@H]3CCCC[C@@H]3N2C(=O)[C@H]2CCCN2C1=O [Ex. 72, cyclo(-Trp-Cyp-Trp-Dab(MEMCO)-^DPro-Oic-)] (cyclo([Ac5c]W[Dab](MeOCH2CH2OCH2CO)[dP][Oic]W))	62.8 ± 41.6	11.5
NCC[C@@H]1NC(=O)[C@H](Cc2c[nH]c3ccccc23)NC(=O)C2(CCCC2)NC(=O)[C@H](Cc2c[nH]c3ccccc23)NC(=O)[C@@H]2C[C@@H](OC(=O)Nc3ccccc3)CN2C(=O)[C@H]2CCCN2C1=O [compound 57, cyclo(-Trp-Cyp-Trp-Dab-^DPro-Hyp(CONHPh)-)] (cyclo([Ac5c]W[Dab][dP][Hyp]([CO-NHPh])W))	150 ± 110	183
NCC[C@H](N)C(=O)NCC[C@@H]1NC(=O)[C@H](Cc2c[nH]c3ccccc23)NC(=O)C2(CCCC2)NC(=O)[C@H](Cc2c[nH]c3ccccc23)NC(=O)[C@@H]2C[C@@H]3CCCC[C@@H]3N2C(=O)[C@H]2CCCN2C1=O [Ex. 71, cyclo(-Trp-Cyp-Trp-Dab(Dab)-^DPro-Oic-)] (cyclo([Ac5c]W[Dab](Dab)[dP][Oic]W))	567 ± 155	50.2
NC(=O)CC[C@@H]1NC(=O)[C@H](Cc2c[nH]c3ccccc23)NC(=O)C2(CCCC2)NC(=O)[C@H](Cc2ccc3ccccc3c2)NC(=O)[C@@H]2Cc3ccccc3CN2C(=O)[C@H]2CCCN2C1=O [Ex. 9, cyclo(-2NaI-Cyp-Trp-Gln-^DPro-Tic-)] (cyclo([2Nal][Ac5c]WQ[dP][Tic]))	9.2 ± 3.6	2
NCC[C@@H]1NC(=O)[C@H](Cc2c[nH]c3ccccc23)NC(=O)C2(CCCC2)NC(=O)[C@H](Cc2c[nH]c3ccccc23)NC(=O)[C@@H]2C[C@H](F)CN2C(=O)[C@H]2CCCN2C1=O [Ex. 4, cyclo(-Trp-Cyp-Trp-Dab-^DPro-Pro((4S)F)—)] (cyclo([Ac5c]W[Dab][dP][Pro(cis-4-F)]W))	860 ± 382	42
COCCN(C)C(=O)NCC[C@@H]1NC(=O)[C@H](Cc2c[nH]c3ccccc23)NC(=O)C2(CCCC2)NC(=O)[C@H](Cc2c[nH]c3ccccc23)NC(=O)[C@@H]2C[C@@H]3CCCC[C@@H]3N2C(=O)[C@H]2CCCN2C1=O [Ex. 97, cyclo(-Trp-Cyp-Trp-Dab((MeO(CH2)2)(Me)NCO)-^DPro-Oic-)] (cyclo([Ac5c]W[Dab]([CO-N(Me)CH2CH2OMe])[dP][Oic]W))	8.1 ± 9.1	5.6
N=C(N)NCCC[C@@H]1NC(=O)[C@H](Cc2c[nH]c3ccccc23)NC(=O)C2(CCCC2)NC(=O)[C@H](Cc2c[nH]c3ccccc23)NC(=O)[C@@H]2Cc3ccc(O)cc3CN2C(=O)[C@H]2CCCN2C1=O [Ex. 3, cyclo(-Trp-Cyp-Trp-Arg-^DPro-Tic(7OH)—)] (cyclo([Ac5c]WR[dP][Tic(7-OH)]W))	78.5 ± 38.6	
N=C(N)NCCC[C@@H]1NC(=O)[C@H](Cc2c[nH]c3ccccc23)NC(=O)C2(CCCC2)NC(=O)[C@H](Cc2c[nH]c3ccccc23)NC(=O)[C@@H]2CSCN2C(=O)[C@H]2CCCN2C1=O [Ex. 5, cyclo(-Trp-Cyp-Trp-Arg-DPro-Thz-)] (cyclo([Ac5c]WR[dP][Thz]W))	70.6 ± 20.1	
N=C(N)NCCC[C@@H]1NC(=O)[C@H](Cc2c[nH]c3ccccc23)NC(=O)C2(CCCC2)NC(=O)[C@H](Cc2c[nH]c3ccc(O)cc23)NC(=O)[C@@H]2Cc3ccccc3CN2C(=O)[C@H]2CCCN2C1=O [Ex. 8, cyclo(-Trp(5OH)-Cyp-Trp-Arg-^DPro-Tic-)] (cyclo([Ac5c]WR[dP][Tic][Trp(5-OH)]))	52.5 ± 3.5	

— patent publication US8754038B2, “Template-fixed peptidomimetics with CCR10 antagonistic activity” (priority 2009, dated 2014)
